In US8119609B2, “Methods of treating diabetic retinopathy with pericyte apoptosis inhibitors” (Merck Sante, priority 2000, dated 2012):
Several values for one entry are separate records, joined by “and”; a condition that tells them apart may be missing. Equal entries are not always repeated. Entries after “also recorded” stand apart in the source; their conditions may differ.

Legend:
[1] = tested on: bovine retinal pericytes; assay: Apoptosis of bovine retinal pericytes cultured with AGE-methylglyoxal, annexin V / propidium iodine staining; format: cell-based
Experimental: The effects of AGE were tested on a uniform batch of cells (bovine retinal pericytes stemming from the same primary culture). When they were at confluence, the bovine retinal pericytes in primary culture were trypsinated. After having allowed them to become attached for 4 hours at 37° C., the medium and the cell debris that had not adhered to the matrix were eliminated and the culture medium (10% of FCS for bovine retinal pericytes) was added. An AGE solution (or its control) was added to the culture medium until reaching a concentration of […] to test the effects of AGE. The cultures were then continued for 1 or 2 passages with the agents, either for 7 or 15 days, respectively, for the bovine retinal pericytes.
Apoptosis was detected and quantified in pericytes cultured during two passages with 2 μM of AGE-methylglyoxal or its control using the technique based on detecting apoptotic cells with annexin V and detecting necrotic cells with propidium iodine.
The presence of phosphatidylserine (PS) on the external layer of the plasma membrane, which is characteristic of apoptotic cells, can be detected using annexin V labeled with fluorescein. This protein has a very strong affinity for PS. Staining is performed in the presence of an intercalating DNA dye, propidium iodine, similar to ethidium bromide to distinguish the apoptotic cells from possibly present necrotic cells which also fix annexin V. For this labeling the pericytes must be subconfluent (75% of confluence) and, thus, cultured for only about 12 days with AGE-methylglyoxal or BSA control.
The bovine retinal pericytes (dish 3.5 cm in diameter) were rinsed three times with PBS then incubated for 10 minutes in the dark with 500 μl of a HEPES buffer containing 10 μl of the fluorescein-labeled annexin V solution and 10 μl of the propidium iodine solution provided in the determination kit. The apoptotic cells as well as the necrotic cells fixed the annexin V and thus appeared green under the fluorescence microscope, but only the nuclei of the necrotic cells were dyed red by the propidium iodine. The percentages of necrotic cells and apoptotic cells were determined on 10 different fields, i.e., on a total of 300 to 800 cells.
Apoptosis was detected and quantified by labeling with annexin V and propidium iodine in bovine retinal pericytes during two passages with 2 μM of AGE-methylglyoxal or their control (see Material and Methods). […] Fluorescein-labeled annexin V stained green the plasma membranes of the apoptotic and necrotic cells, but only the necrotic cells whose cells had lost their integrity, were permeable to propidium iodide which stained their nuclei red. […] The cells were cultured during two passages (approximately 15 days) in the presence of 2 μM of AGE-methylglyoxal or control BSA. The results are expressed as % of apoptotic cells in the total cell population.

[2] = tested on: bovine retinal pericytes; assay: Determination of ceramides and diacylglycerols (DAG) in pericytes cultured with AGE-methylglyoxal (DAG-kinase, 32P-ATP); format: cell-based; conditions: for % inhibition of the stimulated production of DAG induced by AGE-methylglyoxal / % inhibition of the stimulated production of ceramides induced by AGE-methylglyoxal: two passages
Experimental: The ceramides and diacylglycerols were measured in the pericytes cultured during two passages with […] of AGE-methylglyoxal or their control according to the method described by Preiss et al. (1986). This method is based on the phosphorylation of the ceramides and DAG by purified diacylglycerol kinase (DAG-kinase) from Escherichia coli in the presence of ATP labeled with ^32P on the γ phosphor in accordance with the diagram shown in FIG. 3.
The pericytes (2 or 3 dishes, 6 cm in diameter) were rinsed, recovered by scraping with a rubber policeman in 0.5 ml of water on ice and the dish rinsed by a supplementary 0.5 ml (volume of 1 ml of cell suspension) to which was added 10 μl of a solution of (9,10-^3H)-triacylglycerol at 0.5 μCi/ml.
The total lipids were then extracted by the method of Bligh and Dyer (1959). To this cell suspension (1 ml of PBS) was added 3.75 ml of a chloroform: methanol (2:1, v/v) mixture containing 80 μl of BHT (5 mM) in solution in ethanol. The solutions were then vortexed for 30 seconds and allowed to stand for a minimum of 30 minutes, then 1.25 ml of NaCl (0.9%) and 1.25 ml of chloroform were added to separate the phases. After centrifugation (700 g, 5 minutes), the bottom organic phase was collected and extraction of the aqueous phase was repeated twice with 1.5 ml of chloroform. The lipid extracts were then collected and the chloroform evaporated under a nitrogen stream. The aqueous phase enabled determination of the total proteins by staining with amide black and the organic phase was recovered in an Eppendorf tube then evaporated under nitrogen.
A standard range of ceramides (25 to 2500 ng) and DAG (25 to 25,000 ng) containing the same quantity of tritium-labeled triacylglycerol was prepared in parallel. The lipids were then solubilized in 20 μl of a solution of detergents (7.5% of n-octylglucopyranoside, […] and 1 mM of DETAPAC) by 1 minute of sonication followed by incubation for 15 minutes at ambient temperature. The reaction was started by addition of 50 μl of reaction buffer (imidazole 100 mM, NaCl 100 mM, MgCl2 25 mM, EGTA 2 mM, pH 6.6), 20 μl of a solution of DAG-kinase (4.86 mU) containing 10 mM of DTT and 10 μl of [γ-^32P] ATP at 5 mCi/ml diluted 10-fold in a solution containing 10 mM of unlabeled ATP, 100 mM of imidazole and 1 mM of DETAPAC (pH 6.6). The reaction was allowed to continue for 1 hour at ambient temperature and then stopped by 1 ml of the mixture chloroform:methanol: 1N hydrochloric acid (100:100:1, v/v/v), 170 μl of a buffer containing 10 mM of HEPES, 135 mM of NaCl, 1.5 mM of CaCl2, 0.5 mM of MgCl2 and 5.6 mM of glucose (pH 7.4) then 30 μl of EDTA 100 mM. The mixture was then vortexed, allowed to stand for 15 minutes at ambient temperature, then centrifuged (10,000 g, 5 minutes) at ambient temperature.
The organic phase (bottom) was collected and evaporated under nitrogen. The lipids were then taken up with 300 μl of the mixture ether:methanol (9:1, v/v) and deposited on a silica plate. The ceramides-1-phosphate were separated from the phosphatidic acid and triacylglycerols using the mixture chloroform:methanol: acetic acid (65:15:5, v/v/v) as migration solvent.
Exposure of the silica plate to an autoradiographic film (30 minutes, 80° C.) allowed visualization of the different ^32P-labeled lipids. The spots corresponding to the ceramides-1-phosphate and phosphatidic acid as well as the last 3 cm before the migration front (corresponding to the triacylglycerols) were delimited with a graphite crayon and scratched. The silica was recovered in counting pots, moistened with 200 μl of methanol, 200 μl of distilled water and 2 ml of scintillation liquid (Picofluor) for 2 hours before the addition of 8 ml of the scintillation liquid. The radioactivity emitted by the ^32P or the ^3H was then counted in each pot. The radioactivity emitted by the mother solution of (9,10-^3H)-triacylglycerol was also counted which allowed calculation of the reaction yield for each sample. […]

[3] = tested on: retina of diabetic rats; conditions: cited from earlier work; for loss / disappearance of pericytes in the retina of diabetic rats: literature
[4] = 10 μM, listed as Nα-acetyl-cysteine
[5] = 50 μM, listed as Nα-acetyl-cysteine

In the case of S=C(S)OC1CC2CC1C1CCCC21 (centres unmarked) [D609], the “% inhibition of the apoptosis induced by AGE-methylglyoxal” value (from here on “% inhibition of the apoptosis induced”) ([1]; 9.4 μM, two passages) was 40%, the “% inhibition of the apoptosis induced” value ([1]; 30 μM, two passages) was 47% and 50% and the “% inhibition of the stimulated production of DAG induced by AGE-methylglyoxal” value ([2]; 9.4 μM) was 80%. The “% inhibition of the stimulated production of ceramides induced by AGE-methylglyoxal” value ([2]; 9.4 μM) was 95%, the “% inhibition of the stimulated production of DAG induced by AGE-methylglyoxal” value ([2]; 30 μM) was 65% and the “% inhibition of the stimulated production of ceramides induced by AGE-methylglyoxal” value ([2]; 30 μM) was “complete inhibition”.

In the case of CC(=O)N[C@@H](CS)C(=O)O [N-acetyl-L-cysteine, Nα-acetyl-L-cysteine], the “% inhibition of the apoptosis induced” value ([1]; 10 μM, two passages) was “protected the pericytes against the apoptosis; also recorded: complete inhibition”, the “% inhibition of the apoptosis induced” value ([1]; 10 μM, two passages, listed as Nα-acetyl-cysteine) was “normalized” and the “% inhibition of the apoptosis induced” value ([1]; 50 μM, two passages) was “protected the pericytes against the apoptosis”. The “% inhibition of the apoptosis induced” value ([1]; 50 μM, two passages, listed as Nα-acetyl-cysteine) was “normalized”, the “% inhibition of the stimulated production of DAG induced by AGE-methylglyoxal” value [2, 4] was “normalized” and the “% inhibition of the stimulated production of ceramides induced by AGE-methylglyoxal” value [2, 4] was “normalized”. For the same molecule, the “% inhibition of the stimulated production of DAG induced by AGE-methylglyoxal” value [2, 5] was “normalized” and the “% inhibition of the stimulated production of ceramides induced by AGE-methylglyoxal” value [2, 5] was “normalized”.

In the case of N=C(N)NN [aminoguanidine], the “loss / disappearance of pericytes in the retina of diabetic rats” value [3] is given as “prevents” and the “reduction of the number of acellular capillaries in the retina” value ([3]; streptozotocin diabetic rat model (Hammes et al., 1991)) is given as 80%.

For Nc1ncc(-c2ccc(O)cc2)nc1Cc1ccccc1 [coelenteramine], the “% inhibition of the apoptosis induced” value ([1]; 2 μM, two passages) was 60% and ~50%.

In the case of CNCCCN1c2ccccc2CCc2ccccc21 [desipramine, 10,11-dihydro-5-(3-(methylamino)propyl)-5H-dibenz(b,f)azepine], the “% inhibition of the apoptosis induced” value ([1]; 0.3 μM (b168 prints 0.3 mM), two passages) was 50%, the “baseline apoptosis rate of the control cells” value ([1]; 1 μM (results not shown)) was “affected” and the inhibition at 0.1 µM ([1]; Bos taurus, 0.1 μM, two passages, read-out: % inhibition of the apoptosis induced by AGE-methylglyoxal) was 35%. For the same molecule, the inhibition at 0.3 µM ([1]; Bos taurus, 0.3 μM (b168 prints 0.3 mM), two passages, read-out: % inhibition of the apoptosis induced by AGE-methylglyoxal) was 35%, the “% inhibition of the stimulated production of DAG induced by AGE-methylglyoxal” value ([2]; 0.1 μM) was 17% and the “% inhibition of the stimulated production of ceramides induced by AGE-methylglyoxal” value ([2]; 0.1 μM) was 78%. For the same molecule, the “% inhibition of the stimulated production of DAG induced by AGE-methylglyoxal” value ([2]; 0.3 μM) was 13%, the “% inhibition of the stimulated production of ceramides induced by AGE-methylglyoxal” value ([2]; 0.3 μM) was 95% and the “baseline levels of the ceramides and DAG in the cells cultured with BSA control” value ([2]; 1 μM (results not shown)) was “affected”.

Work on O=c1c2ccccc2[se]n1-c1ccccc1 [ebselen] yielded an inhibition at 5 µM ([1]; Bos taurus, 5 μM, two passages, read-out: % inhibition of the apoptosis induced by AGE-methylglyoxal) of 94% and an inhibition at 10 µM ([1]; Bos taurus, 10 μM, two passages, read-out: % inhibition of the apoptosis induced by AGE-methylglyoxal) of 88%.

With CCCC[C@@H](C)[C@@H](OC(=O)C[C@@H](CC(=O)O)C(=O)O)[C@H](C[C@@H](C)C[C@H](O)CCCC[C@@H](O)C[C@H](O)[C@H](C)N)OC(=O)C[C@@H](CC(=O)O)C(=O)O [fumonisin B1] the “% inhibition of the apoptosis induced” value ([1]; 0.01 μM, two passages) was 22%, the “% inhibition of the apoptosis induced” value ([1]; 0.01 μM, two passages, listed as Fumonisin B1, 0.01 µM) was 20% and the “effect on the base apoptosis rate of cells cultured in BSA control” value ([1]; 0.1 μM (results not shown)) was “proapoptotic”.

In the case of Cc1c(C)c2c(c(C)c1O)CCC(C)(C(=O)O)O2 (centres unmarked) [trilox], the “loss / disappearance of pericytes in the retina of diabetic rats” value [3] is listed as “prevent”.

In the case of CC1=C(/C=C/C(C)=C/C=C/C(C)=C/C=C/C=C(C)/C=C/C=C(C)/C=C/C2=C(C)C[C@@H](O)CC2(C)C)C(C)(C)C[C@H](O)C1 [zeaxanthin], the “% inhibition of the apoptosis induced” value ([1]; 2 μM, two passages) was 50%.

In the case of z-DEVD-fmk, the “% inhibition of the apoptosis induced” value ([1]; 50 μM, two passages) was “almost total inhibition”, the “% inhibition of the stimulated production of DAG induced by AGE-methylglyoxal” value ([2]; 50 μM) was “not affected” and the “% inhibition of the stimulated production of ceramides induced by AGE-methylglyoxal” value ([2]; 50 μM) was “not affected”.

For z-LEHD-fmk, the “% inhibition of the apoptosis induced” value ([1]; 50 μM, two passages) was “almost total inhibition”, the “% inhibition of the stimulated production of DAG induced by AGE-methylglyoxal” value ([2]; 50 μM) was “not affected” and the “% inhibition of the stimulated production of ceramides induced by AGE-methylglyoxal” value ([2]; 50 μM) was “not affected”.

For z-VAD-fmk, the “% inhibition of the apoptosis induced” value ([1]; 50 μM, two passages) was “almost total inhibition”, the “% inhibition of the stimulated production of DAG induced by AGE-methylglyoxal” value ([2]; 50 μM) was 100% and the “% inhibition of the stimulated production of ceramides induced by AGE-methylglyoxal” value ([2]; 50 μM) was 75%.

For z-VDVAD-fmk, the “% inhibition of the apoptosis induced” value ([1]; 50 μM, two passages) was “partial inhibition” and the “% inhibition of the apoptosis induced” value ([1]; 50 μM, two passages, listed as z-VDVAD) was “partially inhibits”.
